Data set [1] in a line: Cytotoxicity against HCV infected human Huh5-2 cells assessed as microscopically detectable alteration in cell morphology after 3 days. The format is cell-based, Huh-5-2. As to conditions: HCV infected Huh5-2 cells.
The subject of the next data set is Hepatitis C virus. The data set is described as follows: Antiviral activity against HCV infected in human Huh5-2 cells assessed as reduction of virus-induced cytopathogenicity after 4 days. The format is functional, organism-based, Hepacivirus hominis. As to conditions: Huh-5-2, 96 h. For orientation: Damage to the host cells serves as the signal in cytopathic effect assays.

Data set [2] can be described thus: Selectivity index, ratio of CC50 for human Huh 5-2 cells to EC50 for HCV.

A word on the CC50: it is the concentration that lowers cell viability or growth by half. The term EC50 denotes the concentration at which the effect is half-maximal.

Regarding `COc1cccc2cc(CSc3nc4ccccc4n3[C@H]3C[C@@H](OC(C)=O)[C@H](OC(C)=O)[C@@H](COC(C)=O)O3)c(=O)oc12`, the cytotoxic concentration (CC50) at 72 h in data set [1] worked out at 26 µM. In addition, the EC50 in the data set with Hepatitis C virus was 12 µM. Also, in data set [2], the “Ratio CC50/EC50” value was 2.2.

As to `CC(=O)OC[C@H]1O[C@@H](n2c(SCc3ccc([N+](=O)[O-])cc3)nc3ccccc32)[C@H](OC(C)=O)[C@@H](OC(C)=O)[C@@H]1OC(C)=O`, the CC50 at 72 h in data set [1] was found to be 83 µM. The EC50 in the data set on Hepatitis C virus is 63 µM. Also, in data set [2], the “Ratio CC50/EC50” value came to 1.3.

For the compound `O=c1oc2ccccc2cc1CSc1nc2cncnc2[nH]1`, the CC50 at 72 h in data set [1] is 109 µM. Also, in the data set on Hepatitis C virus, the EC50 came to 2 µM. For the same compound, in data set [2], the “Ratio CC50/EC50” value is given as 54.

Regarding `O=c1oc2ccc(Br)cc2cc1CSc1nc2cccnc2[nH]1`, the CC50 at 72 h in data set [1] stood at 128 µM. Further, the EC50 in the data set on Hepatitis C virus is 6.8 µM. The “Ratio CC50/EC50” value in data set [2] is given as 19.

Consider `Cc1ccc2[nH]c(SCc3ccncc3)nc2c1`, for which the CC50 at 72 h in data set [1] was 199 µM. The EC50 in the data set with Hepatitis C virus amounted to 199 µM. Also, the “Ratio CC50/EC50” value in data set [2] came out at 1.

As to `CC(=O)OC[C@H]1O[C@@H](n2c(=S)[nH]c3ccccc32)[C@H](OC(C)=O)[C@@H](OC(C)=O)[C@@H]1OC(C)=O`, the CC50 at 72 h in data set [1] is 104 µM. The EC50 with Hepatitis C virus was determined as 104 µM. Besides, in data set [2], the “Ratio CC50/EC50” value is recorded as 1.

`O=c1oc2ccccc2cc1CSc1nc2cccnc2[nH]1`: the CC50 at 72 h in data set [1] was 95 µM. Further, in the data set with Hepatitis C virus, the EC50 turned out to be 59 µM. The “Ratio CC50/EC50” value in data set [2] turned out to be 1.6.

On to `c1ccc2cc(CSc3nc4ccccc4[nH]3)ccc2c1`, for which, in data set [1], the 50% cytotoxic concentration (CC50) at 72 h was 56 µM. Also, the EC50 with Hepatitis C virus is 76 µM. In data set [2], the “Ratio CC50/EC50” value turned out to be 0.73.

Turning to `Fc1ccc2[nH]c(SCc3ccccc3)nc2c1`, the CC50 at 72 h in data set [1] stood at 197 µM. Moreover, in the data set with Hepatitis C virus, the EC50 came out at 197 µM. In addition, the “Ratio CC50/EC50” value in data set [2] was determined as 1.

Consider `Clc1cc2nc(SCc3ccncc3)[nH]c2cc1Cl`, for which the CC50 at 72 h in data set [1] amounted to 107 µM. In addition, in the data set with Hepatitis C virus, the EC50 is 100 µM. In addition, in data set [2], the “Ratio CC50/EC50” value is recorded as 1.1.

As to `O=c1oc2ccccc2cc1CSc1nc2ccccc2[nH]1`, the CC50 at 72 h in data set [1] is 90 µM. Also, the EC50 with Hepatitis C virus was found to be 27 µM. Also, the “Ratio CC50/EC50” value in data set [2] is on record as 3.4.

On to `COc1cccc2cc(CSc3nc4ccccc4[nH]3)c(=O)oc12`, for which, in data set [1], the CC50 at 72 h stood at 27 µM. Further, the EC50 in the data set on Hepatitis C virus was 10 µM. Moreover, in data set [2], the “Ratio CC50/EC50” value came to 2.8.

On to `O=c1oc2ccccc2cc1CSc1nc2ccccc2s1`, for which the CC50 at 72 h in data set [1] was found to be 153 µM. Moreover, the EC50 in the data set with Hepatitis C virus was 80 µM. For the same compound, the “Ratio CC50/EC50” value in data set [2] came to 1.9.

As to `O=c1oc2ccc(Br)cc2cc1CSc1nc2ccccc2o1`, in data set [1], the CC50 at 72 h was 131 µM. Further, the EC50 with Hepatitis C virus came out at 12 µM. For the same compound, the “Ratio CC50/EC50” value in data set [2] worked out at 11.

Consider `COc1cccc2cc(CSc3nc4ccccc4s3)c(=O)oc12`, for which, in data set [1], the CC50 at 72 h amounted to 40 µM. Further, in the data set on Hepatitis C virus, the EC50 was 29 µM. Also, in data set [2], the “Ratio CC50/EC50” value is given as 1.4.

As to `O=c1oc2ccccc2cc1CSc1nc2ccccc2o1`, the CC50 at 72 h in data set [1] is 45 µM. The EC50 with Hepatitis C virus turned out to be 12 µM. In addition, the “Ratio CC50/EC50” value in data set [2] worked out at 3.9.

As to `COc1cccc2cc(CSc3nc4cncnc4[nH]3)c(=O)oc12`, the CC50 at 72 h in data set [1] is 94 µM. The concentration giving a half-maximal response (EC50) in the data set with Hepatitis C virus is 20 µM. Moreover, the “Ratio CC50/EC50” value in data set [2] came out at 4.8.

With `CC(=O)OC[C@H]1O[C@@H](n2c(SCc3cc4cc(Br)ccc4oc3=O)nc3ccccc32)C[C@@H](OC(C)=O)[C@@H]1OC(C)=O`, the CC50 at 72 h in data set [1] worked out at 16 µM. Besides, the EC50 with Hepatitis C virus worked out at 4.1 µM. The “Ratio CC50/EC50” value in data set [2] is listed as 4.

As to `CC(=O)OC[C@H]1O[C@@H](n2c(SCc3cc4cc(Br)ccc4oc3=O)nc3cc(Cl)c(Cl)cc32)C[C@@H](OC(C)=O)[C@@H]1OC(C)=O`, the CC50 at 72 h in data set [1] was found to be 11 µM. The EC50 in the data set with Hepatitis C virus is 1.8 µM. The “Ratio CC50/EC50” value in data set [2] is on record as 6.4.

As for `COc1cccc2cc(CSc3nc4cccnc4[nH]3)c(=O)oc12`, in data set [1], the half-maximal cytotoxic concentration (CC50) at 72 h amounted to 30 µM. Moreover, the EC50 in the data set on Hepatitis C virus stood at 11 µM. In data set [2], the “Ratio CC50/EC50” value was determined as 2.8.

Turning to `O=c1oc2ccccc2cc1CSc1nc2cc(Cl)c(Cl)cc2[nH]1`, the CC50 at 72 h in data set [1] came out at 74 µM. Further, in the data set on Hepatitis C virus, the EC50 stood at 15 µM. The “Ratio CC50/EC50” value in data set [2] is 4.9.

With `COc1cccc2cc(CSc3nc4ccccc4o3)c(=O)oc12`, in data set [1], the CC50 at 72 h turned out to be 18 µM. Further, the EC50 in the data set with Hepatitis C virus was determined as 19 µM. Also, in data set [2], the “Ratio CC50/EC50” value came out at 0.96.

Take `Fc1ccc2[nH]c(SCc3ccncc3)nc2c1`: the CC50 at 72 h in data set [1] stood at 196 µM. Besides, the EC50 in the data set with Hepatitis C virus was determined as 184 µM. Moreover, the “Ratio CC50/EC50” value in data set [2] was 1.1.
